Test [1] deals with MCF7. In words: Antiproliferative activity against human MCF7 cells after 48 hrs by MTT assay. The class given is functional, cell-based. Background: Tetrazolium assays rely on reduction of a dye to a coloured formazan, in cell work by metabolically active cells.
The next test concerns HEK293. In words: Antiproliferative activity against HEK293 cells after 48 hrs by MTT assay. Format: cell-based. To be noted: Homo sapiens, HEK293, 48 h.
The test system of another test is HepG2. In words: Antiproliferative activity against human HepG2 cells after 48 hrs by MTT assay. Format: functional, cell-based. Particulars: HepG2, 48 h; call rule not given here.
The next test deals with Carbonic anhydrase 9 (Homo sapiens, UniProt Q16790). Put plainly: Inhibition of human carbonic anhydrase 9 expressed in Escherichia coli BL21 D3 strain using p-nitrophenyl acetate as substrate by UV/visible spectrophotometry.
In test [2] the test system is MCF7. Put plainly: Induction of apoptosis in human MCF7 cells assessed as late apoptotic cells at IC50 after 24 to 48 hrs by Annexin V-FITC/7-AAD dual staining based flow cytometry (reference value: 1.14%). Format: functional.
Test [3] concerns MCF7. Put plainly: Induction of apoptosis in human MCF7 cells assessed as early apoptotic cells at IC50 after 24 to 48 hrs by Annexin V-FITC/7-AAD dual staining based flow cytometry (reference value: 2.74%). The class given is functional. (In general: In flow cytometry, cells or beads pass a laser one at a time.)
In test [4] the test system is MCF7. Put plainly: Induction of apoptosis in human MCF7 cells assessed as necrotic cells at IC50 after 24 to 48 hrs by Annexin V-FITC/7-AAD dual staining based flow cytometry (reference value: 0.20%). The class given is functional.
Test [5] concerns MCF7. In words: Induction of apoptosis in human MCF7 cells assessed as viable cells at IC50 after 24 to 48 hrs by Annexin V-FITC/7-AAD dual staining based flow cytometry (reference value: 95.8%). Format: functional.
In a further test the target is Carbonic anhydrase 2 (Homo sapiens, UniProt P00918). In words: Inhibition of human carbonic anhydrase 2 expressed in Escherichia coli BL21 D3 strain using p-nitrophenyl acetate as substrate by UV/visible spectrophotometry.
The mark [6] stands for this setting: Homo sapiens, MCF7, 48 h, read-out: IC50.

One may read the IC50 as the concentration needed to halve the response being measured. With `O=C(/C=C/c1c[nH]c2ccccc12)c1ccncc1`, the IC50 in the test with MCF7 [1] (setting [6]) is 45.3 µM; with HEK293 it was above 150 µM; in the test on HepG2 it was 49.3 µM.

As to `Cc1ccc(S(=O)(=O)n2cc(/C=C/C(=O)c3ccncc3)c3ccccc32)cc1`, the IC50 at Carbonic anhydrase 9 is 29.9 µM; in the test with MCF7 [1] (setting [6]), 48.9 µM; in the test on HEK293 it was above 150 µM; in the test with HepG2 it was 44.8 µM.

`O=C(/C=C/c1cn(S(=O)(=O)c2ccc(Cl)cc2Cl)c2ccccc12)c1ccncc1`: the IC50 is 0.13 µM at Carbonic anhydrase 9; 12.2 µM in the test on MCF7 [1] (setting [6]); “Dose-dependent effect” with MCF7 [1] (mcf7); above 150 µM with HEK293; 14.8 µM in the test on HepG2. Also, the Activity with MCF7 [2] stood at 10%; in the test on MCF7 [3], 78.8%; with MCF7 [4], 0.53%; in the test with MCF7 [5] it was 10.6%.

As to `CCCS(=O)(=O)n1cc(/C=C/C(=O)c2ccncc2)c2ccccc21`, the IC50 was 44.5 µM at Carbonic anhydrase 9; 52.4 µM with MCF7 [1] (setting [6]); above 100 µM at Carbonic anhydrase 2; above 150 µM with HEK293; 46.2 µM in the test with HepG2.

Take `O=C(/C=C/c1cn(S(=O)(=O)c2cccc([N+](=O)[O-])c2)c2ccccc12)c1ccncc1`: the IC50 against Carbonic anhydrase 9 was 37.6 µM; with MCF7 [1] (setting [6]) it was 36.3 µM; in the test on HEK293 it was above 150 µM; with HepG2 it was 42.6 µM.

Consider `O=C(/C=C/c1cn(S(=O)(=O)c2ccccc2[N+](=O)[O-])c2ccccc12)c1ccncc1`, for which the IC50 against Carbonic anhydrase 9 is 57.3 µM; in the test on MCF7 [1] (setting [6]), 36.9 µM; in the test on HEK293, above 150 µM; in the test with HepG2 it was 31.7 µM.

Take `O=C(/C=C/c1cn(S(=O)(=O)c2cccc3ccccc23)c2ccccc12)c1ccncc1`: the IC50 at Carbonic anhydrase 9 was 44.1 µM; in the test with MCF7 [1] (setting [6]), 58 µM; with HEK293, above 150 µM; in the test on HepG2, 62.9 µM.

For the compound `O=C(/C=C/c1cn(S(=O)(=O)c2ccc(Cl)cc2)c2ccccc12)c1ccncc1`, the IC50 against Carbonic anhydrase 9 was 14.4 µM; in the test on MCF7 [1] (setting [6]) it was 37.5 µM; in the test with HEK293, above 150 µM; in the test on HepG2 it was 35.1 µM.

In turn, `O=C(/C=C/c1cn(S(=O)(=O)c2ccc([N+](=O)[O-])cc2)c2ccccc12)c1ccncc1` displayed an IC50 against Carbonic anhydrase 9 of 0.15 µM.

As for `CC(C)(C)c1ccc(S(=O)(=O)n2cc(/C=C/C(=O)c3ccncc3)c3ccccc32)cc1`, the IC50 on Carbonic anhydrase 9 was 0.15 µM; in the test on MCF7 [1] (setting [6]), 24 µM; with MCF7 [1] (mcf7), “Dose-dependent effect”; in the test with HEK293, above 150 µM; in the test on HepG2, 27 µM. For the same compound, the Activity is 18.9% in the test with MCF7 [2], 3.24% in the test on MCF7 [3], 19.6% with MCF7 [4] and 58.26% in the test on MCF7 [5].

On to `COc1ccc(S(=O)(=O)n2cc(/C=C/C(=O)c3ccncc3)c3ccccc32)cc1`, for which the IC50 was 26.1 µM at Carbonic anhydrase 9, 65.8 µM with MCF7 [1] (setting [6]), above 150 µM in the test with HEK293 and 26 µM in the test on HepG2.

`COc1cccc2c1C(=O)c1c(O)c3c(c(O)c1C2=O)C[C@@](O)(C(=O)CO)C[C@@H]3O[C@H]1C[C@H](N)[C@H](O)[C@H](C)O1` [DOXORUBICIN]: the IC50 is 143 µM in the test on HEK293 and 18.7 µM with HepG2.

The values are drawn from ChEMBL document CHEMBL4152281, “Synthesis, characterization and biological evaluation of tertiary sulfonamide derivatives of pyridyl-indole based heteroaryl chalcone as potential carbonic anhydrase IX inhibitors and anticancer agents” (Eur J Med Chem, 2018).
